Reference: PubChem BioAssay AID179 (DTP/NCI, 2004)
Activity calls are given as the source filed them.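 The calls were made as follows: active = compounds giving half or more protection of infected cells from virus-caused growth loss, again on retest; inactive = the rest.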 Where a SMILES comes first, the peptide text is derived from it.

Test system: CEM cells HIV-1 protection, formazan growth assay
Experiment: NCI AIDS Antiviral Assay
Conditions: for IC50: measured here: growth of uninfected CEM cells
How it was run: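 Protection of CEM cells against HIV-1 measured as cell growth via soluble formazan read-out, with five concentrations tested on both infected and uninfected cells; failure to protect may reflect toxicity.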

## C=C1CC(c2ccc(O)c(OC)c2)Oc2c(OC)cccc21 (stereo not drawn)
  EC50: > 316 µM
  IC50: 32.4 µM

## COc1cc2c(cc1OC)C/C(=N\O)c1cc(OC)c(OC)cc1/C=C\2
  EC50: > 200 µM
  IC50: 1.74 µM

## N#Cc1c(NC(=S)Nc2ccc(Cl)cc2)sc2c1CCCC2
  EC50: > 200 µM
  IC50: > 200 µM

## c1ccc(N=C2C(=Nc3ccccc3)N(C3CCCCC3)C(=NC3CCCCC3)N2c2ccccc2)cc1
  EC50: > 200 µM
  IC50: > 200 µM

## CCOC(=O)C(NC(=O)c1cccc(Cl)c1)(Nc1cccc(C)c1)C(F)(F)F (stereo not drawn)
  EC50: > 200 µM
  IC50: 17.4 µM

## CN1C2=C(CC3=C1CC(C)(C)CC3=O)C(=O)CC(C)(C)C2
  EC50: > 100 µM
  IC50: > 100 µM

## O=C1NC(=O)C(=O)C(c2nc3ccccc3s2)C1=O
  outcome: inactive

## Cc1cc(S(=O)(=O)O)ccc1N=Nc1ccc(N=Nc2cc(S(=O)(=O)O)c3ccccc3c2O)c(C)c1
  EC50: > 100 µM
  IC50: > 100 µM

## CC1=C(O)c2cn(C)cc2C(=O)C1=O
  outcome: inactive

## O=C1C2CN(Cc3ccccc3)CC1CN(Cc1ccccc1)C2
  EC50: > 214 µM
  IC50: 141 µM

## O=C(O)CCCCCCCC(=O)O
  EC50: > 1320 µM
  IC50: > 1320 µM

## O=c1c2ccccc2n2c(=S)[nH]nc2n1-c1ccccc1
  EC50: > 200 µM
  IC50: > 200 µM

## O=C1[C@@H]2C3SC(c4cc5ccccc5cc43)[C@@H]2C(=O)N1c1ccccc1
  EC50: > 72.4 µM
  IC50: > 72.4 µM

## CCCOc1nc(N)c2cnn(C3CCCCO3)c2n1 (stereo not drawn)
  EC50: > 912 µM
  IC50: 550 µM

## COc1ccccc1NC(=O)/C(=C/n1c(=S)[nH]c2cc(C)ccc21)C(C)=O
  EC50: > 200 µM
  IC50: 151 µM

## CN(C)c1ccc(/C=C(\C#N)c2ccc(Cl)cc2)c(Cl)c1
  EC50: > 50.1 µM
  IC50: 4.9 µM

## Oc1cc(O)c(C2c3ccc(O)cc3OC(c3ccc(O)c(O)c3)C2O)c(O)c1 (stereo not drawn)
  EC50: > 46.8 µM
  IC50: > 46.8 µM

## O=c1ccn(C2OC(CO)C(O)C2F)c(=O)n1Cc1ccccc1 (stereo not drawn)
  EC50: > 200 µM
  IC50: > 200 µM

## CN(NC(=O)/C(=C\c1ccco1)NC(=O)c1ccccc1)c1cn[nH]c(=O)c1Cl
  EC50: > 200 µM
  IC50: 38.9 µM

## Cc1cc(Cl)c2c(c1)C(=N/O)/C(=C\c1ccco1)O2
  EC50: > 200 µM
  IC50: 10.2 µM

## COc1ccc(Oc2c(OC)cc(NCCCCCN3C(=O)c4ccccc4C3=O)c3ncccc23)cc1
  EC50: > 100 µM
  IC50: > 100 µM

## O=CN1CCN(C=S)CC1
  EC50: > 1580 µM
  IC50: > 1580 µM

## CC(=O)NC(CS)C(=O)NC(CO)C(=O)NC(CO)C(=O)NC(Cc1c[nH]c2ccccc12)C(=O)N1CCCC1C(=O)NC(CO)C(=O)NC(Cc1c[nH]c2ccccc12)C(=O)NC(Cc1c[nH]cn1)C(=O)NC(CO)C(=O)NC(Cc1c[nH]c2ccccc12)C(=O)NCC(=O)NCC(=O)NC(C)C(=O)NC(CCC(N)=O)C(=O)NC(CCCCN)C(=O)NC(C)C(=O)NC(CCCNC(=N)N)C(=O)NC(CCCCN)C(N)=O (stereo not drawn) (Ac-CSSWPSWHSWGGAQKARK-NH2; configuration not given here)
  EC50: > 20 µM
  IC50: 17.4 µM

## Cc1cc(-c2ccc(N=Nc3c(S(=O)(=O)O)cc4cc(S(=O)(=O)O)cc(N)c4c3O)c(C)c2)ccc1N=Nc1cc(S(=O)(=O)O)c2ccccc2c1O
  outcome: inactive

## Cn1cc(C2(C)CC(C)(C)c3c2n(C)c2ccccc32)c2ccccc21 (stereo not drawn)
  EC50: > 55 µM
  IC50: 47.9 µM

## Cn1c(=O)n(C2(C)C[Se]C2)c2ccccc21
  EC50: > 468 µM
  IC50: 166 µM

## CC(C)(C)CP(=S)(CC(C)(C)C)CC(C)(C)C
  EC50: > 117 µM
  IC50: > 117 µM

## Cc1ccc(-c2cc(-c3ccccc3)c(C#N)c(=O)n2C2OC(CO)C(O)C(O)C2O)cc1 (stereo not drawn)
  EC50: 21.4 µM
  IC50: 22.4 µM

## O=C1C=C(c2[nH]c3ccccc3c2C2=CC(=O)c3ccccc3C2=O)C(=O)c2ccccc21
  outcome: inactive

## CCOC(=O)C(=Cc1ccc(C#N)cc1)C(=O)OCC
  EC50: > 132 µM
  IC50: 8.91 µM

## Cc1ccc(S(=O)(=O)N2CCCCCC2)cc1
  EC50: > 200 µM
  IC50: > 100 µM

## CCS(=O)(=O)CCOP(=O)(c1ccccc1)c1ccccc1
  outcome: inactive

## NC(Cc1ccc(S(=O)(=O)O)cc1)C(=O)NC(Cc1ccc(S(=O)(=O)O)cc1)C(=O)O (stereo not drawn)
  EC50: > 200 µM
  IC50: > 200 µM

## Cc1cccc(N2C(=O)C3c4[nH]c5ccccc5c4C4CCC(C(C)(C)C)CC4C3C2=O)c1C (stereo not drawn)
  EC50: > 200 µM
  IC50: 22.9 µM

## CN1CCOC(c2ccc(Cl)cc2)O1 (stereo not drawn)
  outcome: inactive

## COC(=O)C(NC(=O)c1ccccc1)C(c1c(O)cc(O)cc1O)P(=O)(OC)OC (stereo not drawn)
  EC50: > 16.2 µM
  IC50: > 16.2 µM

## CCOC(=O)c1nc2ccc(Cl)cc2c2c1CCO2
  EC50: > 5.25 µM
  IC50: > 5.25 µM

## Cc1ccc(N=NC(=O)NNc2ccc(C)cc2Br)c(Br)c1
  EC50: > 200 µM
  IC50: 35.5 µM

## CCOC(=O)/C(C#N)=C/c1ccc(Cl)cc1
  EC50: > 110 µM
  IC50: > 110 µM

## CCOc1ccccc1NC(=O)C1=C(C)NC(C)=C(C(=O)Nc2ccccc2OCC)C1c1ccc(NC(C)=O)cc1
  EC50: > 12.6 µM
  IC50: > 12.6 µM

## C/C=C1\CN2CCC34c5ccccc5N5C(=O)CCC(C1CC23)C54 (stereo not drawn)
  EC50: > 42.7 µM
  IC50: > 42.7 µM

## Cn1c(=O)sc2cc(C(=S)N3CCC(Cc4ccccc4)CC3)ccc21
  EC50: > 200 µM
  IC50: 36.3 µM

## Cc1ncc([N+](=O)[O-])n1CCNC(=O)CCCCn1ccnc1[N+](=O)[O-]
  EC50: > 200 µM
  IC50: > 200 µM

## CC1=CC(=O)N2C(OC[C@@H]2c2ccccc2)O1 (stereo partly drawn)
  EC50: > 562 µM
  IC50: > 562 µM

## CCOC(=O)C(=CN1C/C(=C/C(C)=C/c2ccccc2)SC1=S)C(=O)OCC
  EC50: > 100 µM
  IC50: 18.2 µM

## CC(=O)c1ccc(NC(=O)/C(=N\NC(N)=O)C(C#N)CC(C)(C)C=O)cc1 (stereo not drawn)
  EC50: > 490 µM
  IC50: > 490 µM

## C=C1C(=O)OC2CC(C)C(/C=C/C(C)=O)=CCC12 (stereo not drawn)
  EC50: > 363 µM
  IC50: 56.2 µM

## C/C(=N/N=C(\[O-])c1ccncc1)C(F)(F)F.C/C(=N\N=C(/[O-])c1ccncc1)C(F)(F)F.[Cu+2]
  EC50: > 200 µM
  IC50: 18.2 µM

## COc1cc2ccc3c4cc(OC)c(OCc5ccccc5)cc4cnc3c2cc1OC
  outcome: inactive

## COc1ccc(C2CC(=O)c3c(cc(OC)c(O)c3OC)O2)cc1 (stereo not drawn)
  EC50: > 200 µM
  IC50: 32.4 µM

## CC1(Br)CN(C(=S)Nc2ccccc2)C1=O (stereo not drawn)
  EC50: > 200 µM
  IC50: 97.7 µM

## COC(=O)c1c(O)c(C#N)c2[nH]c3ccccc3n2c1=O
  EC50: > 100 µM
  IC50: > 100 µM

## Brc1ccc(N=NN2CCCCC2)cc1
  EC50: > 200 µM
  IC50: 18.6 µM

## CCCCOCn1c(=O)[nH]c(=O)c2cc(Br)ccc21
  EC50: > 200 µM
  IC50: 93.3 µM

## CC1=CCC(C)=Nc2nc3ccccc3n21
  EC50: > 200 µM
  IC50: > 200 µM

## CCCOCC(=O)OC
  EC50: > 1910 µM
  IC50: > 1910 µM

## CCCCCCCCCCCCCC(=O)O[C@@H]1[C@@H](C)[C@@]2(O)[C@@H](C=C(CO)C[C@]3(O)C(=O)C(C)=C[C@@H]23)[C@@H]2C(C)(C)[C@]12OC(C)=O
  outcome: active

## COC(=O)[C@H](CCSC)NCc1cc(N(C)C)cc(CN[C@@H](CCSC)C(=O)OC)n1
  EC50: > 200 µM
  IC50: > 200 µM

## N#CNC(=NCc1ccccc1)NCc1ccccc1
  EC50: 200 µM
  IC50: 339 µM

## O=C1c2ccccc2C=c2c1nc1c(O)ccc3cccc2c31
  EC50: > 100 µM
  IC50: 15.5 µM

## CSCCCSC1CCCCCCCCCCC1=O (stereo not drawn)
  EC50: > 200 µM
  IC50: > 200 µM

## CC(=O)N1CCc2[nH]c3ccccc3c2CC1
  EC50: > 575 µM
  IC50: 234 µM

## CC(=O)[O-].[Zn].c1ccc(/C(=N\Nc2ccccn2)c2ccccn2)cc1
  outcome: inactive

## COc1cc(/C=C/c2sc3ccccc3[n+]2C)ccc1N(C)C
  EC50: > 200 µM
  IC50: 3.24 µM

## O=C1CCCC1C(O)(C(F)(F)F)C(F)(F)F (stereo not drawn)
  EC50: > 200 µM
  IC50: > 200 µM

## CC(=O)Nc1ccc2cc(-c3ccc(Cl)cc3)c3nnnn3c2n1
  EC50: > 200 µM
  IC50: > 200 µM

## c1cc2c3c(c1)[I+]c1cccc(c1-3)[I+]2
  EC50: > 100 µM
  IC50: 0.12 µM

## CC1(C)CC(=O)C(/C=N/C(N)=S)=C(O)C1
  EC50: > 200 µM
  IC50: > 200 µM

## COc1ccc(/C=C2/C(=O)N=C(NC(C)=O)N2C)cc1OC
  EC50: > 200 µM
  IC50: > 200 µM

## COc1ccc(NC(=O)/C(C#N)=C/c2ccc(O)c(O)c2)cc1O
  EC50: > 200 µM
  IC50: 16.2 µM

## C=C(Br)CN(CC(=C)Br)C(C)=O
  EC50: > 200 µM
  IC50: > 200 µM

## C1=C[C@@H]2c3ccc4cnccc4c3NC[C@@H]2C1
  EC50: > 589 µM
  IC50: 36.3 µM

## CCN1C[C@]2(COC)CCC(O)C34[C@@H]5C[C@@H]6C(OC(C)=O)[C@@H]5[C@](OC(C)=O)(C[C@@H]6OC)[C@@H](C(OC)[C@@H]32)[C@H]14 (stereo partly drawn)
  outcome: inactive

## CC(C)(C)NP(=O)(NC(C)(C)C)NC(C)(C)C
  EC50: > 200 µM
  IC50: 107 µM

## CC(C)(C)[Si](C)(C)OCCC1CC2(S(=O)(=O)C3=CC=C=C=C3)ON1CC2S(=O)(=O)c1ccccc1 (stereo not drawn)
  EC50: > 35.5 µM
  IC50: > 35.5 µM

## CNc1c(Br)cc(/C=C2\C=Cc3ccccc32)cc1Br
  EC50: > 9.55 µM
  IC50: > 9.55 µM

## CC(=O)NC(C(=O)O)(C(=O)O)C(C)CC(=O)O (stereo not drawn)
  EC50: > 200 µM
  IC50: > 200 µM

## O=C1C2c3[nH]c4ccccc4c3[C@@H]3CCCCCCCCCCC3C2C(=O)N1c1ccccc1 (stereo partly drawn)
  outcome: inactive

## O=C1C(=Cc2c(O)cc(O)cc2O)C(=O)c2ccccc21
  EC50: > 17.8 µM
  IC50: > 17.8 µM

## Cc1cc(C)c(C(=O)c2c(C)ccc(C)c2C(=O)O)c(C)c1
  EC50: > 200 µM
  IC50: > 200 µM

## CC1C2CC(C/C2=N/O)C1(C)C (stereo not drawn)
  EC50: > 1480 µM
  IC50: 437 µM

## CCc1cc2c(c3c1CCCC3=O)CC1(Cc3ccc(C(=O)OC)cc3C1)C2 (stereo not drawn)
  EC50: > 200 µM
  IC50: 36.3 µM

## N#Cc1c(N2CCOCC2)ncn(-c2ccccc2)c1=O
  EC50: > 200 µM
  IC50: > 200 µM

## COC(=O)CCC(=O)CC(=O)C1=NS(=O)(=O)c2nc(S(N)(=O)=O)c(Cl)cc2N1
  EC50: 0.38 µM
  IC50: 550 µM

## CCOC(=O)Nc1cc2c(c(N)n1)N=C(CN(C)c1ccccc1)CN2
  EC50: > 34.7 µM
  IC50: 0.0741 µM

## COc1ccc(CC2(O)C3CC4CCC2C4C3)cc1 (stereo not drawn)
  EC50: > 200 µM
  IC50: 87.1 µM

## Cc1cc(-n2c(C)ccc2C)no1
  EC50: > 200 µM
  IC50: > 200 µM
